Measured values: patent publication US20250026759A1 (Merck Sharp & Dohme LLC, priority 2023, published 2025)

Tested on: PBMCs infected with VSV-G pseudotyped HIV virus (VSV-G/pNLG1-P2A-ΔEnv)
Experiment: cells
Assay type: cell-based, human
Details: Homo sapiens, PBMC, read-out: TACK EC50

Row | Structure (SMILES) | EC50
1 | CC(F)(F)[C@@]1(C#CC2CC2)NC(=O)Nc2cc(Cn3cnc(C(N)=O)n3)c(F)cc21 (single isomer, unassigned) [Example 113] | 51.2 nM
2 | CC(F)(F)[C@@]1(C#CC2CC2)NC(=O)Nc2cc(Cn3ncnc3C(N)=O)c(F)cc21 (single isomer, unassigned) [Example 114] | 18.5 nM
3 | NC(=O)c1ncnn1Cc1cc2c(cc1F)[C@@](C#CC1CC1)(C(F)(F)F)NC(=O)N2 (single isomer, unassigned) [Example 116] | 31.8 nM
4 | NC(=O)c1ncn(Cc2cc3c(cc2F)[C@@](C#CC2CC2)(C(F)(F)F)NC(=O)N3)n1 (single isomer, unassigned) [Example 117] | 31.6 nM
5 | CN1C(=O)NC(=O)C1Cc1cc2c(cc1F)[C@@](C#CC1CC1)(C(C)(F)F)NC(=O)N2 (single isomer, unassigned) [Example 124, (S or R)-5-(((S)-4-(cyclopropylethynyl)-4-(1,1-difluoroethyl)-6-fluoro-2-oxo-1,2,3,4-tetrahydroquinazolin-7-yl)methyl)-1-methylimidazolidine-2,4-dione] | 90.4 nM
6 | COc1ncn(Cc2cc3c(cc2F)[C@@](C#CC2CC2)(C(C)(F)F)NC(=O)N3)n1 [Example 1, (S)-4-(cyclopropylethynyl)-4-(1,1-difluoroethyl)-6-fluoro-7-((3-methoxy-1H-1,2,4-triazol-1-yl)methyl)-3,4-dihydroquinazolin-2(1H)-one] | 14.6 nM
7 | CC(F)(F)[C@@]1(C#CC2CC2)NC(=O)Nc2cc(Cn3ccc(CO)n3)c(F)cc21 [Example 2, (S)-4-(cyclopropylethynyl)-4-(1,1-difluoroethyl)-6-fluoro-7-((3-(hydroxymethyl)-1H-pyrazol-1-yl)methyl)-3,4-dihydroquinazolin-2(1H)-one] | 14.5 nM
8 | COc1cnn(Cc2cc3c(cc2F)[C@@](C#CC2CC2)(C(C)(F)F)NC(=O)N3)c1 [Example 3, (S)-4-(cyclopropylethynyl)-4-(1,1-difluoroethyl)-6-fluoro-7-((4-methoxy-1H-pyrazol-1-yl)methyl)-3,4-dihydroquinazolin-2(1H)-one] | 14.4 nM
9 | CC(F)(F)[C@@]1(C#CC2CC2)NC(=O)Nc2cc(Cn3cnc(CO)n3)c(F)cc21 [Example 4, (S)-4-(cyclopropylethynyl)-4-(1,1-difluoroethyl)-6-fluoro-7-((3-(hydroxymethyl)-1H-1,2,4-triazol-1-yl)methyl)-3,4-dihydroquinazolin-2(1H)-one] | 67.7 nM
10 | CN1CC(=O)N(Cc2cc3c(cc2F)[C@@](C#CC2CC2)(C(F)(F)F)NC(=O)N3)C1=O [Example 9, (S)-3-((4-(cyclopropylethynyl)-6-fluoro-2-oxo-4-(trifluoromethyl)-1,2,3,4-tetrahydroquinazolin-7-yl)methyl)-1-methylimidazolidine-2,4-dione] | 74.6 nM
11 | CC(F)(F)[C@@]1(C#CC2CC2)NC(=O)Nc2cc(Cn3cc(-c4ccncc4)cn3)c(F)cc21 [Example 10, (S)-4-(cyclopropylethynyl)-4-(1,1-difluoroethyl)-6-fluoro-7-((4-(pyridin-4-yl)-1H-pyrazol-1-yl)methyl)-3,4-dihydroquinazolin-2(1H)-one] | 37.2 nM
12 | Cc1cnn(Cc2cc3c(cc2F)[C@@](C#CC2CC2)(C(C)(F)F)NC(=O)N3)c1 [Example 11, (S)-4-(cyclopropylethynyl)-4-(1,1-difluoroethyl)-6-fluoro-7-((4-methyl-1H-pyrazol-1-yl)methyl)-3,4-dihydroquinazolin-2(1H)-one] | 46.6 nM
13 | CC(F)(F)[C@@]1(C#CC2CC2)NC(=O)Nc2cc(Cn3c(=O)[nH]c4ccccc43)c(F)cc21 [Example 12, (S)-4-(cyclopropylethynyl)-4-(1,1-difluoroethyl)-6-fluoro-7-((2-oxo-2,3-dihydro-1H-benzo[d]imidazol-1-yl)methyl)-3,4-dihydroquinazolin-2(1H)-one] | 19.6 nM
14 | O=C1Nc2cc(Cn3c(=O)oc4ccccc43)c(F)cc2[C@@](C#CC2CC2)(C(F)(F)F)N1 [Example 13, (S)-3-((4-(cyclopropylethynyl)-6-fluoro-2-oxo-4-(trifluoromethyl)-1,2,3,4-tetrahydroquinazolin-7-yl)methyl)benzo[d]oxazol-2(3H)-one] | 14.3 nM
15 | CC(F)(F)[C@@]1(C#CC2CC2)NC(=O)Nc2cc(CN3C(=O)CNC3=O)c(F)cc21 [Example 14, (S)-3-((4-(cyclopropylethynyl)-4-(1,1-difluoroethyl)-6-fluoro-2-oxo-1,2,3,4-tetrahydroquinazolin-7-yl)methyl)imidazolidine-2,4-dione] | 24.8 nM
16 | CC(F)(F)[C@@]1(C#CC2CC2)NC(=O)Nc2cc(Cn3cc(F)cn3)c(F)cc21 [Example 15, (S)-4-(cyclopropylethynyl)-4-(1,1-difluoroethyl)-6-fluoro-7-((4-fluoro-1H-pyrazol-1-yl)methyl)-3,4-dihydroquinazolin-2(1H)-one] | 27.3 nM
17 | CC(F)(F)[C@@]1(C#CC2CC2)NC(=O)Nc2cc(Cn3cc(Cl)cn3)c(F)cc21 [Example 16, (S)-7-((4-chloro-1H-pyrazol-1-yl)methyl)-4-(cyclopropylethynyl)-4-(1,1-difluoroethyl)-6-fluoro-3,4-dihydroquinazolin-2(1H)-one] | 32.4 nM
18 | CC(F)(F)[C@@]1(C#CC2CC2)NC(=O)Nc2cc(Cn3ccc(C#N)n3)c(F)cc21 [Example 17, (S)-1-((4-(cyclopropylethynyl)-4-(1,1-difluoroethyl)-6-fluoro-2-oxo-1,2,3,4-tetrahydroquinazolin-7-yl)methyl)-1H-pyrazole-3-carbonitrile] | 46.3 nM
19 | COCc1cc(Cl)n(Cc2cc3c(cc2F)[C@@](C#CC2CC2)(C(C)(F)F)NC(=O)N3)n1 [Example 18, (S)-7-((5-chloro-3-(methoxymethyl)-1H-pyrazol-1-yl)methyl)-4-(cyclopropylethynyl)-4-(1,1-difluoroethyl)-6-fluoro-3,4-dihydroquinazolin-2(1H)-one] | 46.6 nM
20 | CC(F)(F)[C@@]1(C#CC2CC2)NC(=O)Nc2cc(Cn3ccc(Br)n3)c(F)cc21 [Example 19, (S)-7-((3-bromo-1H-pyrazol-1-yl)methyl)-4-(cyclopropylethynyl)-4-(1,1-difluoroethyl)-6-fluoro-3,4-dihydroquinazolin-2(1H)-one] | 26.2 nM
21 | CC(F)(F)[C@@]1(C#CC2CC2)NC(=O)Nc2cc(Cn3cncn3)c(F)cc21 [Example 20, (S)-7-((1H-1,2,4-triazol-1-yl)methyl)-4-(cyclopropylethynyl)-4-(1,1-difluoroethyl)-6-fluoro-3,4-dihydroquinazolin-2(1H)-one] | 43.7 nM
22 | O=C1Nc2cc(Cn3cc4cnccc4n3)c(F)cc2[C@@](C#CC2CC2)(C(F)(F)F)N1 [Example 21, (S)-7-((2H-pyrazolo[4,3-c]pyridin-2-yl)methyl)-4-(cyclopropylethynyl)-6-fluoro-4-(trifluoromethyl)-3,4-dihydroquinazolin-2(1H)-one] | 13.4 nM
23 | O=C1Nc2cc(Cn3c(=O)[nH]c4ccccc43)c(F)cc2[C@@](C#CC2CC2)(C(F)(F)F)N1 [Example 24, (S)-4-(cyclopropylethynyl)-6-fluoro-7-((2-oxo-2,3-dihydro-1H-benzo[d]imidazol-1-yl)methyl)-4-(trifluoromethyl)-3,4-dihydroquinazolin-2(1H)-one] | 32.5 nM
24 | O=C1Nc2cc(Cn3cc4cncnc4n3)c(F)cc2[C@@](C#CC2CC2)(C(F)(F)F)N1 [Example 27, (S)-7-((2H-pyrazolo[3,4-d]pyrimidin-2-yl)methyl)-4-(cyclopropylethynyl)-6-fluoro-4-(trifluoromethyl)-3,4-dihydroquinazolin-2(1H)-one] | 82.6 nM
25 | O=C1Nc2cc(Cn3cc4cccnc4n3)c(F)cc2[C@@](C#CC2CC2)(C(F)(F)F)N1 [Example 28, (S)-7-((2H-pyrazolo[3,4-b]pyridin-2-yl)methyl)-4-(cyclopropylethynyl)-6-fluoro-4-(trifluoromethyl)-3,4-dihydroquinazolin-2(1H)-one] | 104 nM
26 | O=C1Nc2cc(CN3C(=O)CNC3=O)c(F)cc2[C@@](C#CC2CC2)(C(F)(F)F)N1 [Example 29, (S)-3-((4-(cyclopropylethynyl)-6-fluoro-2-oxo-4-(trifluoromethyl)-1,2,3,4-tetrahydroquinazolin-7-yl)methyl)imidazolidine-2,4-dione] | 27.4 nM
27 | COCc1ccn(Cc2cc3c(cc2F)[C@@](C#CC2CC2)(C(F)(F)F)NC(=O)N3)n1 [Example 30, (S)-4-(cyclopropylethynyl)-6-fluoro-7-((3-(methoxymethyl)-1H-pyrazol-1-yl)methyl)-4-(trifluoromethyl)-3,4-dihydroquinazolin-2(1H)-one] | 36.5 nM
28 | O=C1Nc2cc(Cn3cnc(CO)n3)c(F)cc2[C@@](C#CC2CC2)(C(F)(F)F)N1 [Example 31, (S)-4-(cyclopropylethynyl)-6-fluoro-7-((3-(hydroxymethyl)-1H-1,2,4-triazol-1-yl)methyl)-4-(trifluoromethyl)-3,4-dihydroquinazolin-2(1H)-one] | 52.8 nM
29 | Cc1nn(C)c(=O)n1Cc1cc2c(cc1F)[C@@](C#CC1CC1)(C(F)(F)F)NC(=O)N2 [Example 32, (S)-4-(cyclopropylethynyl)-7-((1,3-dimethyl-5-oxo-1,5-dihydro-4H-1,2,4-triazol-4-yl)methyl)-6-fluoro-4-(trifluoromethyl)-3,4-dihydroquinazolin-2(1H)-one] | 14.4 nM
30 | Cc1n[nH]c(=O)n1Cc1cc2c(cc1F)[C@@](C#CC1CC1)(C(F)(F)F)NC(=O)N2 [Example 33, (S)-4-(cyclopropylethynyl)-6-fluoro-7-((3-methyl-5-oxo-1,5-dihydro-4H-1,2,4-triazol-4-yl)methyl)-4-(trifluoromethyl)-3,4-dihydroquinazolin-2(1H)-one] | 23.6 nM

Same assay, conditions: read-out: TACK EC50

Row | Structure (SMILES) | EC50
31 | CN1C(=O)NC(=O)C1Cc1cc2c(cc1F)[C@@](C#CC1CC1)(C(C)(F)F)NC(=O)N2 (single isomer, unassigned) [Example 125, (R or S)-5-(((S)-4-(cyclopropylethynyl)-4-(1,1-difluoroethyl)-6-fluoro-2-oxo-1,2,3,4-tetrahydroquinazolin-7-yl)methyl)-1-methylimidazolidine-2,4-dione] | 111 nM
